Experimental findings from patent publication US8586747B2, “3,3-dimethyl tetrahydroquinoline derivatives” (Hoffmann-La Roche Inc., priority 2010, dated 2013) are described below.

The structures appear in SMILES notation.

In the assay the test system is AMP-activated protein kinase (AMPK). As to the kind of experiment: ADP Quest assay for AMPK activators. The following applies: fold of AMPK activation to phosphorylate SAMS peptide without and with an activator at the concentration of 30 µM. Also noted: key: fold AMPK activation with vs without activator at 30 µM. Type of assay: biochemical. The procedure, abridged:
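AMPK phosphorylation of SAMS peptide with ATP monitored kinetically at room temperature by ADP Quest fluorescence (ex 530/em 590 nm), reaction started with enzyme. Compounds tested […] in 2-fold dilutions, AMP as reference. E30 is fold activation at 30 µM activator versus none.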
On to `CC1(C)Cc2cc(C(=O)O)ccc2NC1c1cccc(N2CCN(c3ccc(Cl)cc3)CC2)c1` (centres unmarked) [Example 87, 2-{3-[4-(4-Chloro-phenyl)-piperazin-1-yl]-phenyl}-3,3-dimethyl-1,2,3,4-tetrahydro-quinoline-6-carboxylic acid], for which the E30 is recorded as 1.3.
In turn, `CC1(C)Cc2cc(C(=O)NS(C)(=O)=O)ccc2NC1c1cccc(N2CCN(c3ccc(Cl)cc3)CC2)c1` (centres unmarked) [Example 88, N-(2-{3-[4-(4-Chloro-phenyl)-piperazin-1-yl]-phenyl}-3,3-dimethyl-1,2,3,4-tetrahydro-quinoline-6-carbonyl)-methanesulfonamide] returned an E30 of 1.35.
For `Cc1ccc(N2CCN(c3cccc(C4Nc5ccc(C(=O)O)cc5CC4(C)C)c3)CC2)c(C)c1` (centres unmarked) [Example 89, 2-{3-[4-(2,4-Dimethyl-phenyl)-piperazin-1-yl]-phenyl}-3,3-dimethyl-1,2,3,4-tetrahydro-quinoline-6-carboxylic acid], the E30 was 1.3.
For `Cc1ccc(N2CCN(c3cccc(C4Nc5ccc(C(=O)NS(C)(=O)=O)cc5CC4(C)C)c3)CC2)c(C)c1` (centres unmarked) [Example 90, N-(2-{3-[4-(2,4-Dimethyl-phenyl)-piperazin-1-yl]-phenyl}-3,3-dimethyl-1,2,3,4-tetrahydro-quinoline-6-carbonyl)-methanesulfonamide], the E30 is 1.44.
As for `Cc1ccc(N2CCN(c3cccc(C4Nc5ccc(C(=O)NS(=O)(=O)C6CC6)cc5CC4(C)C)c3)CC2)c(C)c1` (centres unmarked) [Example 91, Cyclopropanesulfonic acid (2-{3-[4-(2,4-dimethyl-phenyl)-piperazin-1-yl]-phenyl}-3,3-dimethyl-1,2,3,4-tetrahydro-quinoline-6-carbonyl)-amide], the E30 is 1.31.
`Cc1ccccc1N1CCN(c2cccc(C3Nc4c(cc(F)cc4C(=O)O)CC3(C)C)c2)CC1` (centres unmarked) [Example 92, 6-Fluoro-3,3-dimethyl-2-[3-(4-o-tolyl-piperazin-1-yl)-phenyl]-1,2,3,4-tetrahydro-quinoline-8-carboxylic acid] had an E30 of 1.23.
On to `CC1(C)Cc2cc(Cl)cc(C(=O)NS(C)(=O)=O)c2NC1c1cccc(N2CCN(c3ccc(Cl)cc3)CC2)c1` (centres unmarked) [Example 93, N-(6-Chloro-2-{3-[4-(4-chloro-phenyl)-piperazin-1-yl]-phenyl}-3,3-dimethyl-1,2,3,4-tetrahydro-quinoline-8-carbonyl)-methanesulfonamide], for which the E30 is on record as 1.32.
For `Cc1ccccc1N1CCN(c2cccc(C3Nc4c(cccc4C(=O)O)CC3(C)C)c2)CC1` (centres unmarked) [Example 94, 3,3-Dimethyl-2-[3-(4-o-tolyl-piperazin-1-yl)-phenyl]-1,2,3,4-tetrahydro-quinoline-8-carboxylic acid], the E30 is 1.33.
On to `CC1(C)Cc2c(ccc(Cl)c2C(=O)O)NC1c1cccc(N2CCOCC2)c1` (centres unmarked) [Example 95, 6-Chloro-3,3-dimethyl-2-(3-morpholin-4-yl-phenyl)-1,2,3,4-tetrahydro-quinoline-5-carboxylic acid], for which the E30 was 1.56.
With `CN1CCN(c2cccc(C3Nc4ccc(C(=O)NS(C)(=O)=O)cc4CC3(C)C)c2)CC1` (centres unmarked) [Example 96, N-{3,3-Dimethyl-2-[3-(4-methyl-piperazin-1-yl)-phenyl]-1,2,3,4-tetrahydro-quinoline-6-carbonyl}-methanesulfonamide] the figure was 1.5.
The compound `CC1(C)Cc2cc(C(=O)NS(=O)(=O)C3CC3)ccc2NC1c1cccc(N2CCNCC2)c1` (centres unmarked) [Example 97, Cyclopropanesulfonic acid [3,3-dimethyl-2-(3-piperazin-1-yl-phenyl)-1,2,3,4-tetrahydro-quinoline-6-carbonyl]-amide] had an E30 of 1.46.
On to `CCS(=O)(=O)NC(=O)c1ccc2c(c1)CC(C)(C)C(c1cccc(N3CCOCC3)c1)N2` (centres unmarked) [Example 98, Ethanesulfonic acid [3,3-dimethyl-2-(3-morpholin-4-yl-phenyl)-1,2,3,4-tetrahydro-quinoline-6-carbonyl]-amide], for which the E30 is reported as 1.44.
The compound `CN1CCN(c2cccc(C3Nc4ccc(C(=O)O)cc4CC3(C)C)c2)CC1` (centres unmarked) [Example 99, 3,3-Dimethyl-2-[3-(4-methyl-piperazin-1-yl)-phenyl]-1,2,3,4-tetrahydro-quinoline-6-carboxylic acid] came in with an E30 of 1.42.
As for `CC1(C)Cc2cc(Cl)cc(C(=O)O)c2NC1c1cccc(N2CCOCC2)c1` (centres unmarked) [Example 100, 6-Chloro-3,3-dimethyl-2-(3-morpholin-4-yl-phenyl)-1,2,3,4-tetrahydro-quinoline-8-carboxylic acid], the E30 stood at 1.4.
Compound `CC1(C)Cc2cc(Cl)cc(C(=O)NS(=O)(=O)C3CC3)c2NC1c1cccc(N2CCOCC2)c1` (centres unmarked) [Example 101, Cyclopropanesulfonic acid [6-chloro-3,3-dimethyl-2-(3-morpholin-4-yl-phenyl)-1,2,3,4-tetrahydro-quinoline-8-carbonyl]-amide] returned an E30 of 1.4.
`CC1(C)Cc2cc(C(=O)O)ccc2NC1c1cccc(N2CCNCC2)c1` (centres unmarked) [Example 102, 3,3-Dimethyl-2-(3-piperazin-1-yl-phenyl)-1,2,3,4-tetrahydro-quinoline-6-carboxylic acid]: the E30 was 1.4.
Consider `CC1(C)Cc2cc(C(=O)NS(C)(=O)=O)ccc2NC1c1cccc(N2CCNCC2)c1` (centres unmarked) [Example 103, N-[3,3-Dimethyl-2-(3-piperazin-1-yl-phenyl)-1,2,3,4-tetrahydro-quinoline-6-carbonyl]-methanesulfonamide], for which the E30 is 1.37.
`CC1CN(c2cccc(C3Nc4ccc(C(=O)NS(=O)(=O)C5CC5)cc4CC3(C)C)c2)CC(C)O1` (centres unmarked) [Example 105, Cyclopropanesulfonic acid {2-[3-(2,6-dimethyl-morpholin-4-yl)-phenyl]-3,3-dimethyl-1,2,3,4-tetrahydro-quinoline-6-carbonyl}-amide] gave an E30 of 1.35.
The compound `CC1CN(c2cccc(C3Nc4ccc(C(=O)O)cc4CC3(C)C)c2)CC(C)O1` (centres unmarked) [Example 106, 2-[3-(2,6-Dimethyl-morpholin-4-yl)-phenyl]-3,3-dimethyl-1,2,3,4-tetrahydro-quinoline-6-carboxylic acid] registered an E30 of 1.3.
For `COc1cccc(C2Nc3ccc(C(=O)N4CCC(C)(O)C4)cc3CC2(C)C)c1` (centres unmarked) [Example 107, (3-Hydroxy-3-methyl-pyrrolidin-1-yl)-[2-(3-methoxy-phenyl)-3,3-dimethyl-1,2,3,4-tetrahydro-quinolin-6-yl]-methanone], the E30 is recorded as 1.29.
The compound `CC1(C)Cc2cc(C(=O)O)ccc2NC1c1cccnc1` (centres unmarked) [Example 108, 3,3-Dimethyl-2-pyridin-3-yl-1,2,3,4-tetrahydro-quinoline-6-carboxylic Acid] returned an E30 of 1.29.
With `CC1(C)Cc2cc(C(=O)O)ccc2NC1c1cccc(-c2ccc(Cl)cc2)c1` (centres unmarked) [Example 109, 2-(4′-Chloro-biphenyl-3-yl)-3,3-dimethyl-1,2,3,4-tetrahydro-quinoline-6-carboxylic acid], the E30 amounted to 1.24.
The compound `CC1(C)Cc2cc(C(=O)NS(C)(=O)=O)ccc2NC1c1cccc(N2CCOC2=O)c1` (centres unmarked) [Example 110, N-{3,3-Dimethyl-2-[3-(2-oxo-oxazolidin-3-yl)-phenyl]-1,2,3,4-tetrahydro-quinoline-6-carbonyl}-methanesulfonamide] displayed an E30 of 1.24.
